Tests used:
DYRK1A [1] = biological target: T1, DYRK1A (Homo sapiens, UniProt Q13627); test: KdELECT Kinase Assay Panel (Eurofins) binding affinity; settings: read-out: DYRK1A Kd, duplicate 11-point dose-response curves
Protocol: (§1) KDs were obtained from Eurofins. The KdELECT Kinase Assay Panel enables quantitated compound binding affinity against any kinase assay. Inhibitor binding constants (Kd values) are calculated from duplicate 11-point dose-response curves. Measurements are made under optimized conditions that generate true thermodynamic Kd values which facilitate direct comparison of inhibitor affinity across kinases.

WNT signaling = test: WNT reporter assay (TopGFP reporter); type: cell-based; settings: Human Colonic Epithelial Cells (HCEC) with TopGFP reporter, stimulated with 10 μM CHIR99021, 24 hours
Source text: KDs were obtained from Eurofins.

DYRK1A [2] = biological target: T1, DYRK1A; test: biochemical
Protocol: as §1

Molecule | Kd (DYRK1A [1]) | EC50 (WNT signaling) | Kd (DYRK1A [2])
1-(5-(4-(6-(2-aminopyridin-4-yl)quinazolin-4-yl)-2-fluorophenyl)hexahydropyrrolo[3,4-c]pyrrol-2(1H)-yl)ethan-1-one [Compound 46] | < 100 nM |  | 
CN1CCN(c2c(F)cc(-c3ncnc4ccc(-c5ccnc(N)c5)cc34)cc2F)CC1 [Compound 31, 4-(4-(3,5-difluoro-4-(4-methylpiperazin-1-yl)phenyl)quinazolin-6-yl)pyridin-2-amine] |  | 100 to 1000 nM | < 100 nM
Nc1cc(-c2ccc3nccc(-c4ccc(N5CCOCC5)c(F)c4)c3c2)ccn1 [Compound 32, 4-(4-(3-fluoro-4-morpholinophenyl)quinolin-6-yl)pyridin-2-amine] |  | 100 to 1000 nM | < 100 nM
Fc1cc(-c2ncnc3ccc(-c4c[nH]c5ncccc45)cc23)ccc1N1CCNCC1 [Compound 33, 4-(3-fluoro-4-(piperazin-1-yl)phenyl)-6-(1H-pyrrolo[2,3-b]pyridin-3-yl)quinazoline] |  | 100 to 1000 nM | < 100 nM
CC(=O)N1CCN(c2ccc(-c3ncnc4ccc(-c5ccnc(N)c5)cc34)cc2F)CC1 [Compound 34, 1-(4-(4-(6-(2-aminopyridin-4-yl)quinazolin-4-yl)-2-fluorophenyl)piperazin-1-yl)ethan-1-one] |  | 100 to 1000 nM | < 100 nM
Nc1cc(-c2ccc3ncnc(-c4ccc(N5CCNCC5)c(F)c4)c3c2)ccn1 [Compound 35, 4-(4-(3-fluoro-4-(piperazin-1-yl)phenyl)quinazolin-6-yl)pyridin-2-amine] |  | 100 to 1000 nM | < 100 nM
CCN1CCN(c2ccc(-c3ncnc4ccc(-c5ccnc(N)c5)cc34)cc2F)CC1 [Compound 36, 4-(4-(4-(4-ethylpiperazin-1-yl)-3-fluorophenyl)quinazolin-6-yl)pyridin-2-amine] |  | 100 to 1000 nM | < 100 nM
CC(=O)N1C[C@@H]2C[C@H]1CN2c1ccc(-c2ncnc3ccc(-c4ccnc(N)c4)cc23)cc1 [Compound 39, 1-((1S,4S)-5-(4-(6-(2-aminopyridin-4-yl)quinazolin-4-yl)phenyl)-2,5-diazabicyclo[2.2.1]heptan-2-yl)ethan-1-one] |  | 100 to 1000 nM | < 100 nM
CC(=O)N1C[C@@H]2C[C@H]1CN2c1ccc(-c2ncnc3ccc(-c4ccnc(N)c4)cc23)cc1F [Compound 40, 1-((1S,4S)-5-(4-(6-(2-aminopyridin-4-yl)quinazolin-4-yl)-2-fluorophenyl)-2,5-diazabicyclo[2.2.1]heptan-2-yl)ethan-1-one] |  | 100 to 1000 nM | < 100 nM
CN1[C@@H]2CC[C@H]1CN(c1ccc(-c3ncnc4ccc(-c5ccnc(N)c5)cc34)cc1F)C2 [Compound 43, 4-(4-(3-fluoro-4-((1R,5S)-8-methyl-3,8-diazabicyclo[3.2.1]octan-3-yl)phenyl)quinazolin-6-yl)pyridin-2-amine] |  | 100 to 1000 nM | < 100 nM
CC(=O)N1CC2(C1)CN(c1ccc(-c3ncnc4ccc(-c5ccnc(N)c5)cc34)cc1)C2 [Compound 44, 41-(6-(4-(6-(2-aminopyridin-4-yl)quinazolin-4-yl)phenyl)-2,6-diazaspiro[3.3]heptan-2-yl)ethan-1-one] |  | 100 to 1000 nM | < 100 nM
CC(C)(C)N1CCN(c2ccc(-c3ncnc4ccc(-c5ccnc(N)c5)cc34)cc2F)CC1 [Compound 45, 4-(4-(4-(4-(tert-butyl)piperazin-1-yl)-3-fluorophenyl)quinazolin-6-yl)pyridin-2-amine] |  | 100 to 1000 nM | < 100 nM
CC(C)N1CCN(c2ccc(-c3ncnc4ccc(-c5ccnc(N)c5)cc34)cc2F)CC1 [Compound 50, 4-(4-(3-fluoro-4-(4-isopropylpiperazin-1-yl)phenyl)quinazolin-6-yl)pyridin-2-amine] |  | 100 to 1000 nM | < 100 nM

Now from value to molecule:

Kd (DYRK1A [1]) | EC50 (WNT signaling) | Kd (DYRK1A [2]) | Molecule
 | < 100 nM | < 100 nM | CC(=O)N1CCN(c2ccc(-c3ccnc4ccc(-c5ccnc(N)c5)cc34)cc2)CC1 [Compound 38, 1-(4-(4-(6-(2-aminopyridin-4-yl)quinolin-4-yl)phenyl)piperazin-1-yl)ethan-1-one]
 | < 100 nM | < 100 nM | Nc1cc(-c2ccc3ncnc(-c4ccc(N5CCN(CCO)CC5)cc4)c3c2)ccn1 [Compound 41, 2-(4-(4-(6-(2-aminopyridin-4-yl)quinazolin-4-yl)phenyl)piperazin-1-yl)ethan-1-ol]
 | < 100 nM | < 100 nM | Nc1cc(-c2ccc3ncnc(-c4ccc(N5CCN(C6COC6)CC5)cc4)c3c2)ccn1 [Compound 42, 4-(4-(4-(4-(oxetan-3-yl)piperazin-1-yl)phenyl)quinazolin-6-yl)pyridin-2-amine]
 | < 100 nM | < 100 nM | CS(=O)(=O)N1CCN(c2ccc(-c3ncnc4ccc(-c5ccnc(N)c5)cc34)cc2F)CC1 [Compound 47, 4-(4-(3-fluoro-4-(4-(methylsulfonyl)piperazin-1-yl)phenyl)quinazolin-6-yl)pyridin-2-amine]
 | < 100 nM | < 100 nM | CC(C)CN1CCN(c2ccc(-c3ncnc4ccc(-c5ccnc(N)c5)cc34)cc2F)CC1 [Compound 48, 4-(4-(3-fluoro-4-(4-isobutylpiperazin-1-yl)phenyl)quinazolin-6-yl)pyridin-2-amine]
 | < 100 nM | < 100 nM | CN(C)C(=O)N1CCN(c2ccc(-c3ncnc4ccc(-c5ccnc(N)c5)cc34)cc2F)CC1 [Compound 49, 4-(4-(6-(2-aminopyridin-4-yl)quinazolin-4-yl)-2-fluorophenyl)-N,N-dimethylpiperazine-1-carboxamide]
 | < 100 nM | < 100 nM | [2H]C([2H])([2H])N1CCN(c2ccc(-c3ncnc4ccc(-c5ccnc(N)c5)cc34)cc2F)CC1 [Compound 51, 4-(4-(3-fluoro-4-(4-(methyl-d3)piperazin-1-yl)phenyl)quinazolin-6-yl)pyridin-2-amine]
 | < 100 nM | < 100 nM | COC(=O)N1CCN(c2ccc(-c3ncnc4ccc(-c5ccnc(N)c5)cc34)cc2F)CC1 [Compound 52, methyl 4-(4-(6-(2-aminopyridin-4-yl)quinazolin-4-yl)-2-fluorophenyl)piperazine-1-carboxylate]
 | < 100 nM | < 100 nM | Nc1cc(-c2ccc3ncnc(-c4ccc(N5CCN(C(=O)C6CC6)CC5)c(F)c4)c3c2)ccn1 [Compound 53, (4-(4-(6-(2-aminopyridin-4-yl)quinazolin-4-yl)-2-fluorophenyl)piperazin-1-yl)(cyclopropyl)methanone]
 | < 100 nM | < 100 nM | COCCN1CCN(c2ccc(-c3ncnc4ccc(-c5ccnc(N)c5)cc34)cc2F)CC1 [Compound 54, 4-(4-(3-fluoro-4-(4-(2-methoxyethyl)piperazin-1-yl)phenyl)quinazolin-6-yl)pyridin-2-amine]
 | < 100 nM | < 100 nM | Nc1cc(-c2ccc3ncnc(-c4ccc(N5CCN(C6CCOCC6)CC5)c(F)c4)c3c2)ccn1 [Compound 55, 4-(4-(3-fluoro-4-(4-(tetrahydro-2H-pyran-4-yl)piperazin-1-yl)phenyl)quinazolin-6-yl)pyridin-2-amine]
 | < 100 nM | < 100 nM | Nc1cc(-c2ccc3ncnc(-c4ccc(N5CCN(C6COC6)CC5)c(F)c4)c3c2)ccn1 [Compound 56, 4-(4-(3-fluoro-4-(4-(oxetan-3-yl)piperazin-1-yl)phenyl)quinazolin-6-yl)pyridin-2-amine]

— patent publication US20250382277A1, “SMALL MOLECULE INHIBITORS OF DYRK/CLK AND USES THEREOF” (Arizona Board of Regents on Behalf of the University of …, priority 2022, published 2025)
